According to patent US20250353873A1, “COMPOUNDS AND METHODS FOR MODULATING APOE EXPRESSION” (Ionis Pharmaceuticals, Inc., priority 2024, published 2025):
“And” between values parts separate entries of the source, which are not always exact repeats. Equal values may be shown once. Strand notation (5' to 3'): a small letter for the sugar, then the base; units joined by * are phosphorothioate-linked, units joined directly phosphodiester-linked; [ ] holds rarer units or linkages, { } end groups; capitals alone tell only the bases. [ms] = mesyl phosphoramidate linkage; e = 2'-O-(2-methoxyethyl) (MOE); k = constrained ethyl (cEt); [5mC] = 5-methylcytosine; d = 2'-deoxy (DNA)

Key:
[1] = test system: human APOE RNA; experiment: Activity in APOE C57BL/6NTac-Apoeem7250 knock-in mice, single ICV bolus, 4 weeks (Example 10); format: in vivo; conditions: single ICV bolus 300 μg, 4 weeks post treatment, normalized to mouse Ppia
Summary of the method: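 Knock-in mice (2–4 per group) received one 300 μg ICV bolus of oligonucleotide or PBS. After four weeks, human APOE RNA in cortex and spinal cord measured by RT-qPCR (primer probe set RTS3073), normalized to mouse Ppia, expressed as % of PBS controls.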

[2] = test system: human APOE RNA; experiment: Dose-dependent inhibition of human APOE RNA in differentiated SH-SY5Y cells, free uptake, 5 days (Example 5); format: cell-based
Summary of the method: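 Differentiated SH-SY5Y cells (10,000/well) treated by free uptake with graded oligonucleotide concentrations for 5 days. APOE RNA quantified with primer probe set RTS3073, normalized to PPIA, expressed as % untreated control; IC50 calculated.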

[3] = test system: human APOE RNA; experiment: Dose-dependent inhibition of human APOE RNA in HepG2 cells, electroporation, 50,000 cells per well, RT-PCR normalized to GAPDH (Example 4, Tables 8-10); format: cell-based
Summary of the method: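 HepG2 cells, 50,000 per well, electroporated with modified oligonucleotide at various concentrations. APOE RNA quantified by RT-PCR with human primer probe set RTS3073, normalized to GAPDH. Values are percent APOE RNA relative to untreated control cells.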

[4] = test system: human APOE RNA; experiment: Activity in APOE C57BL/6NTac-Apoeem7250 knock-in mice, single ICV bolus, 8 weeks (Example 11); format: in vivo
Summary of the method: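 Human APOE knock-in C57BL/6NTac mice given one ICV bolus of 300 μg oligonucleotide; PBS-dosed group as control. At 8 weeks, cortex and spinal cord RNA measured by qRT-PCR (human probe RTS3073), normalized to mouse Ppia, expressed as % of PBS control.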

[5] = test system: human APOE RNA; experiment: Activity in APOE C57BL/6NTac-Apoeem7250 knock-in mice, single ICV bolus, 20 weeks (Example 13); format: in vivo; conditions: single ICV bolus 300 μg, 20 weeks post treatment, normalized to mouse Ppia
Summary of the method: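 Knock-in mice (n=4) given a single ICV bolus of 300 μg oligonucleotide, PBS as control. After 20 weeks, human APOE RNA in cortex and spinal cord measured by RT-qPCR, normalized to mouse Ppia, expressed as % of PBS-treated animals.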

Aes^mCeoTeoTesGesGksTdsGdzAdzAdzTds^mCdsTdsTdsTdsAdzTksTksAesAe (eA*e[5mC]eTeT*eG*kG*dT*dG[ms]dA[ms]dA[ms]dT*d[5mC]*dT*dT*dT*dA[ms]kT*kT*eA*eA) [Compound No. 1757576]
APOE RNA (% control) Cortex ([1]; cortex): 29 % control | APOE RNA (% control) Spinal Cord ([1]; spinal cord): 23 % control | APOE RNA (% UTC) ([2]; 5 nM, 5 days (Table 13)): 75 % UTC | APOE RNA (% UTC) ([2]; 5 nM, 5 days (Table 14)): 68 % UTC | APOE RNA (% UTC) ([2]; 13 nM, 5 days (Table 13)): 71 % UTC | APOE RNA (% UTC) ([2]; 13 nM, 5 days (Table 14)): 51 % UTC | APOE RNA (% UTC) ([2]; 33 nM, 5 days (Table 13)): 45 % UTC | APOE RNA (% UTC) ([2]; 33 nM, 5 days (Table 14)): 44 % UTC | APOE RNA (% UTC) ([2]; 82 nM, 5 days (Table 13)): 42 % UTC | APOE RNA (% UTC) ([2]; 82 nM, 5 days (Table 14)): 35 % UTC | APOE RNA (% UTC) ([2]; 205 nM, 5 days (Table 13)): 43 % UTC | APOE RNA (% UTC) ([2]; 205 nM, 5 days (Table 14)): 32 % UTC | APOE RNA (% UTC) ([2]; 512 nM, 5 days (Table 13)): 31 % UTC | APOE RNA (% UTC) ([2]; 512 nM, 5 days (Table 14)): 32 % UTC | APOE RNA (% UTC) ([2]; 1,280 nM, 5 days (Table 13)): 29 % UTC | APOE RNA (% UTC) ([2]; 1,280 nM, 5 days (Table 14)): 27 % UTC | APOE RNA (% UTC) ([2]; 3,200 nM, 5 days (Table 13)): 27 % UTC | APOE RNA (% UTC) ([2]; 3,200 nM, 5 days (Table 14)): 23 % UTC | APOE RNA (% UTC) ([2]; 8,000 nM, 5 days (Table 13)): 12 % UTC | APOE RNA (% UTC) ([2]; 8,000 nM, 5 days (Table 14)): 17 % UTC | APOE RNA (% UTC) ([2]; 20,000 nM, 5 days (Table 13)): 18 % UTC | APOE RNA (% UTC) ([2]; 20,000 nM, 5 days (Table 14)): 6 % UTC | IC50 ([2]; 5 days (Table 13)): 70 nM | IC50 ([2]; 5 days (Table 14)): 20 nM | APOE RNA (% UTC) ([3]; 5 nM, HepG2, electroporation, 16-hour treatment): 86 % UTC | APOE RNA (% UTC) ([3]; 13 nM, HepG2, electroporation, 16-hour treatment): 74 % UTC | APOE RNA (% UTC) ([3]; 33 nM, HepG2, electroporation, 16-hour treatment): 80 % UTC | APOE RNA (% UTC) ([3]; 82 nM, HepG2, electroporation, 16-hour treatment): 84 % UTC | APOE RNA (% UTC) ([3]; 205 nM, HepG2, electroporation, 16-hour treatment): 74 % UTC | APOE RNA (% UTC) ([3]; 512 nM, HepG2, electroporation, 16-hour treatment): 61 % UTC | APOE RNA (% UTC) ([3]; 1,280 nM, HepG2, electroporation, 16-hour treatment): 45 % UTC | APOE RNA (% UTC) ([3]; 3,200 nM, HepG2, electroporation, 16-hour treatment): 32 % UTC | APOE RNA (% UTC) ([3]; 8,000 nM, HepG2, electroporation, 16-hour treatment): 22 % UTC | APOE RNA (% UTC) ([3]; 20,000 nM, HepG2, electroporation, 16-hour treatment): 7 % UTC | IC50 ([3]; HepG2, electroporation, 16-hour treatment): 820 nM | APOE RNA (% UTC) 5 nM ([3]; HepG2 cells, electroporation, 24-hour treatment, 5 nM, Table 8): 86 % UTC | APOE RNA (% UTC) 13 nM ([3]; HepG2 cells, electroporation, 24-hour treatment, 13 nM, Table 8): 81 % UTC | APOE RNA (% UTC) 33 nM ([3]; HepG2 cells, electroporation, 24-hour treatment, 33 nM, Table 8): 63 % UTC | APOE RNA (% UTC) 82 nM ([3]; HepG2 cells, electroporation, 24-hour treatment, 82 nM, Table 8): 67 % UTC | APOE RNA (% UTC) 205 nM ([3]; HepG2 cells, electroporation, 24-hour treatment, 205 nM, Table 8): 46 % UTC | APOE RNA (% UTC) 512 nM ([3]; HepG2 cells, electroporation, 24-hour treatment, 512 nM, Table 8): 23 % UTC | APOE RNA (% UTC) 1,280 nM ([3]; HepG2 cells, electroporation, 24-hour treatment, 1,280 nM, Table 8): 24 % UTC | APOE RNA (% UTC) 3,200 nM ([3]; HepG2 cells, electroporation, 24-hour treatment, 3,200 nM, Table 8): 11 % UTC | APOE RNA (% UTC) 8,000 nM ([3]; HepG2 cells, electroporation, 24-hour treatment, 8,000 nM, Table 8): 15 % UTC | APOE RNA (% UTC) 20,000 nM ([3]; HepG2 cells, electroporation, 24-hour treatment, 20,000 nM, Table 8): 2 % UTC | IC50 ([3]; reduction of human APOE RNA, HepG2 cells, electroporation, 24-hour treatment, Table 8): 140 nM | reduction of human APOE RNA in the cortex ([4]; APOE knock-in mouse model, 8 weeks post administration, assay of Example 11): 79% | APOE RNA (% control) Cortex ([4]; cortex, single ICV bolus 300 μg, 8 weeks post treatment, normalized to mouse Ppia): 29 % control and 21 % control | APOE RNA (% control) Spinal Cord ([4]; spinal cord, single ICV bolus 300 μg, 8 weeks post treatment, normalized to mouse Ppia): 15 % control and 10 % control | APOE RNA (% control) Cortex ([5]; cortex): 32 % control | APOE RNA (% control) Spinal Cord ([5]; spinal cord): 31 % control
